Consider 71 molecules from patent US20250170126A1 (MITSUBISHI TANABE PHARMA CORPORATION, priority 2022, published 2025).

Chain of Human B0AT1 (Q695T7 whole entry): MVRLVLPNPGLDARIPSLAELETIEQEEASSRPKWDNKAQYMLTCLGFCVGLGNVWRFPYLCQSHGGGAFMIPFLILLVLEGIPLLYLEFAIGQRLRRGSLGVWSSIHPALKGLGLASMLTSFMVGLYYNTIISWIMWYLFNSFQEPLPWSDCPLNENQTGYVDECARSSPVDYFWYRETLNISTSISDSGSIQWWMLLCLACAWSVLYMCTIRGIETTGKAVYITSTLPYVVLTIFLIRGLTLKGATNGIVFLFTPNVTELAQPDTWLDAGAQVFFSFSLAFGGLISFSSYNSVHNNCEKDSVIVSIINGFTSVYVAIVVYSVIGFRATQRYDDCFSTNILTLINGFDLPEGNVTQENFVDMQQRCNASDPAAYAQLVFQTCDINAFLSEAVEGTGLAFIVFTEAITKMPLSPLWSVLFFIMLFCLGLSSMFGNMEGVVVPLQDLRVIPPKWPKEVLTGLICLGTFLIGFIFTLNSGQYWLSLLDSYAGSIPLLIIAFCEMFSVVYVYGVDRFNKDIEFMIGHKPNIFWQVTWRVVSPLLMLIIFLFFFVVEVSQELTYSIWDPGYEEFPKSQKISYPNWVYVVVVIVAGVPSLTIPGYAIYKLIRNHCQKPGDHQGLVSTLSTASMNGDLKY

For the test, the target named is Human B0AT1 (Homo sapiens (Human), UniProt Q695T7). In words: hB0AT1 inhibitory test (phenylalanine uptake). The format is cell-based. The note with it: Human B0AT1 stable expression CHO cells; [3H]-L-phenylalanine uptake, phenylalanine 0.25 mM. The protocol:
A test compound dissolved in dimethyl sulfoxide (DMSO) was added to a 96 well plate for solid phase radioactivity measurement containing a scintillator at the bottom of the well (final concentration of DMSO 0.5%). DMSO alone as a control and DMSO containing N-(4-bromophenyl)-3,5-dichloro-2-hydroxybenzamide (final concentration […]) for the is measurement of B0AT1 non-specific uptake were similarly added at 0.5 μL per well. Human B0AT1 stable expression CHO cells suspended in a buffer (buffer containing 96 mM sodium chloride, 2 mM potassium chloride, 1.8 mM calcium chloride, 1 mM magnesium chloride, 0.01% bovine serum albumin, and 10 mM 2-[4-(2-hydroxyethyl)-1-piperazinyl]ethanesulfonic acid) were added by 90 μL to 75000 cells/well. After standing at ordinary temperature for 30 min or longer, the cells were subjected to a phenylalanine uptake experiment. A buffer containing L-phenylalanine and [3,4,5-3H]-L-phenylalanine was added by 10 μL per well (final concentration of phenylalanine 0.25 mM), and the radioactivity of the plate bottom surface at ordinary temperature was measured with a scintillation counter over time, and the radioactivity value after 100 to 200 min was analyzed. A value obtained by subtracting the B0AT1 non-specific uptake from the control uptake was taken as 100%, and the concentration necessary for each test compound to achieve 50% inhibition (IC50 value) was determined by nonlinear regression using a logistic model.
Turning to `O=C(/C=C/c1ccc(C(F)(F)F)cc1)NCC(=O)N1CC(=O)NC(c2ccccc2)C1` (single isomer, unassigned) [I-136, (E)-N-[2-oxo-2-[3-oxo-5-phenylpiperazin-1-yl]ethyl]-3-[4-(trifluoromethyl)phenyl]prop-2-enamide], the IC50 worked out at 0.087 µM.
`O=C(/C=C/c1ccc(C(F)(F)F)cc1)NCC(=O)N1CCNC(=O)C1` [I-1, (E)-N-[2-oxo-2-(3-oxopiperazin-1-yl)ethyl]-3-[4-(trifluoromethyl)phenyl]prop-2-enamide] displayed an IC50 of 0.107 µM.
The value for `CN1CCN(C(=O)CNC(=O)/C=C/c2ccc(C(F)(F)F)cc2)CC1` [I-2] was 0.053 µM.
Under `CN1CCCN(C(=O)CNC(=O)/C=C/c2ccc(C(F)(F)F)cc2)CC1` [I-3] stands 0.04 µM; under `COCCN(CCOC)C(=O)CNC(=O)/C=C/c1ccc(C(F)(F)F)cc1` [I-4], 0.285 µM.
Under `CCN(CCOC)C(=O)CNC(=O)/C=C/c1ccc(C(F)(F)F)cc1` [I-5] stands 0.262 µM.
Turning to `CC1CN(C(=O)CNC(=O)/C=C/c2ccc(C(F)(F)F)cc2)CCN1C` (centres unmarked) [I-6], inhibition was half-maximal at 0.024 µM (IC50).
Under `O=C(/C=C/c1ccc(C(F)(F)F)cc1)NCC(=O)N1CCS(=O)(=O)CC1` [I-9] stands 1.59 µM.
The molecule `CCOCCN(CCOCC)C(=O)CNC(=O)/C=C/c1ccc(C(F)(F)F)cc1` [I-10] came in with a half-maximal inhibitory concentration (IC50) of 0.803 µM.
Turning to `COCCN(C(=O)CNC(=O)/C=C/c1ccc(C(F)(F)F)cc1)C(C)COC` (centres unmarked) [I-11], the midpoint of inhibition, the IC50, lay at 0.282 µM.
Under `O=C(/C=C/c1ccc(C(F)(F)F)cc1)NCC(=O)N1CC(=O)NC(c2ccccc2)C1` (centres unmarked) [I-12, (E)-N-[2-oxo-2-(3-oxo-5-phenylpiperazin-1-yl)ethyl]-3-[4-(trifluoromethyl)phenyl]prop-2-enamide] stands 0.163 µM; under `CN1CCN(C(=O)CNC(=O)/C=C/c2ccc(C(F)(F)F)cc2)CC1c1ccccc1` (centres unmarked) [I-13], 0.111 µM.
As for `O=C(/C=C/c1ccc(C(F)(F)F)cc1)NCC(=O)N1CCOC(c2ccccc2)C1` (centres unmarked) [I-14], 0.815 µM corresponded to half-maximal inhibition (IC50).
Under `O=C(/C=C/c1ccc(C(F)(F)F)cc1)NCC(=O)N1CCNC(=O)CC1` [I-15] stands 0.228 µM; under `O=C(/C=C/c1ccc(C(F)(F)F)cc1)NCC(=O)N1CCCNC(=O)C1` [I-16], 1.75 µM; under `CN1CCN(C(=O)CNC(=O)/C=C/c2ccc(C(F)(F)F)cc2)CC1=O` [I-17], 0.195 µM.
Under `O=C(/C=C/c1ccc(C(F)(F)F)cc1)NCC(=O)N1CC[C@H](O)C1` [I-18] stands 1.66 µM.
The value for `O=C(/C=C/c1ccc(C(F)(F)F)cc1)NCC(=O)N1CCc2nncn2CC1` [I-20] was 0.27 µM; that for `O=C(/C=C/c1ccc(C(F)(F)F)cc1)NCC(=O)N1CCn2ccnc2C1` [I-21] was 0.065 µM; that for `O=C(/C=C/c1ccc(C(F)(F)F)cc1)NCC(=O)N1CCn2c(nnc2C(F)(F)F)C1` [I-22] was 0.214 µM.
Take `O=C(/C=C/c1ccc(C(F)(F)F)cc1)NCC(=O)N1CCn2cncc2C1` [I-23]: the IC50 was found to be 0.112 µM.
Under `CC(C)N1CCN(C(=O)CNC(=O)/C=C/c2ccc(C(F)(F)F)cc2)CC1` [I-24] stands 0.058 µM; under `O=C(/C=C/c1ccc(C(F)(F)F)cc1)NCC(=O)N1CCN(CCO)CC1` [I-25], 0.081 µM.
The value for `CC1CCN(C(=O)CNC(=O)/C=C/c2ccc(C(F)(F)F)cc2)CC1` [I-26] was 1.44 µM; that for `CCOC(=O)N1CCN(C(=O)CNC(=O)/C=C/c2ccc(C(F)(F)F)cc2)CC1` [I-27] was 0.72 µM.
Under `CC(=O)N1CCN(C(=O)CNC(=O)/C=C/c2ccc(C(F)(F)F)cc2)CC1` [I-28] stands 0.978 µM; under `O=C(/C=C/c1ccc(C(F)(F)F)cc1)NCC(=O)N1CNC(=O)C1` [I-31], 0.106 µM.
With `O=C(/C=C/c1ccc(C(F)(F)F)cc1)NCC(=O)N1CCN2C(=O)OC[C@H]2C1` [I-32], the midpoint of inhibition, the IC50, lay at 0.212 µM.
The value for `O=C(/C=C/c1ccc(C(F)(F)F)cc1)NCC(=O)N1CCN2C(=O)OC[C@@H]2C1` [I-33] was 0.319 µM; that for `O=C(/C=C/c1ccc(C(F)(F)F)cc1)NCC(=O)N1CCc2ncsc2C1` [I-34] was 0.021 µM.
The value for `O=C(/C=C/c1ccc(C(F)(F)F)cc1)NCC(=O)N1CCn2ncnc2C1` [I-35] was 0.051 µM; that for `O=C(/C=C/c1ccc(C(F)(F)F)cc1)NCC(=O)N1CCc2ccncc2C1` [I-36] was 0.015 µM.
Under `O=C(/C=C/c1ccc(C(F)(F)F)cc1)NCC(=O)N1CCn2cc(C(F)(F)F)nc2C1` [I-37] stands 0.091 µM; under `O=C(/C=C/c1ccc(C(F)(F)F)cc1)NCC(=O)N1CCn2c(n[nH]c2=O)C1` [I-38], 0.046 µM; under `O=C(/C=C/c1ccc(C(F)(F)F)cc1)NCC(=O)N1CCc2oncc2C1` [I-39], 0.029 µM.
In turn, `Cn1cnc2c1CN(C(=O)CNC(=O)/C=C/c1ccc(C(F)(F)F)cc1)CC2` [I-40] registered an IC50 of 0.029 µM.
The value for `O=C(/C=C/c1ccc(C(F)(F)F)cc1)NCC(=O)N1CCN2CCOCC2C1` (centres unmarked) [I-41] was 0.833 µM; that for `O=C(/C=C/c1ccc(C(F)(F)F)cc1)NCC(=O)N1CCc2cn[nH]c2C1` [I-42] was 0.073 µM.
Under `O=C(/C=C/c1ccc(C(F)(F)F)cc1)NCC(=O)N1CCN2C(=O)CCC2C1` (centres unmarked) [I-43] stands 0.08 µM; under `O=C(/C=C/c1ccc(C(F)(F)F)cc1)NCC(=O)N1CCN2C(=O)NCC2C1` (centres unmarked) [I-44], 0.261 µM; under `CN1CCN(C(=O)CNC(=O)/C=C/c2ccc(C(F)(F)F)cc2)C(c2ccccc2)C1` (centres unmarked) [I-45], 0.024 µM.
Under `CN(CCS(C)(=O)=O)C(=O)CNC(=O)/C=C/c1ccc(C(F)(F)F)cc1` [I-46] stands 0.181 µM.
`CS(=O)(=O)[C@@H]1CCN(C(=O)CNC(=O)/C=C/c2ccc(C(F)(F)F)cc2)C1` [I-47] displayed an IC50 of 0.55 µM.
The value for `COCCN(CC1CCCO1)C(=O)CNC(=O)/C=C/c1ccc(C(F)(F)F)cc1` (centres unmarked) [I-48] was 0.536 µM; that for `COCCN(CC1CCOCC1)C(=O)CNC(=O)/C=C/c1ccc(C(F)(F)F)cc1` [I-49] was 0.775 µM.
The value for `COCCN(Cc1ccccn1)C(=O)CNC(=O)/C=C/c1ccc(C(F)(F)F)cc1` [I-50] was 0.081 µM.
Take `COCCN(CCS(C)(=O)=O)C(=O)CNC(=O)/C=C/c1ccc(C(F)(F)F)cc1` [I-51]: the IC50 stood at 0.386 µM.
The value for `COCCN(Cc1noc(C)n1)C(=O)CNC(=O)/C=C/c1ccc(C(F)(F)F)cc1` [I-52] was 0.056 µM.
The molecule `COCCN(Cc1cc(OC)ccn1)C(=O)CNC(=O)/C=C/c1ccc(C(F)(F)F)cc1` [I-53] yielded an IC50 of 0.054 µM.
The value for `COCCN(Cc1ccncn1)C(=O)CNC(=O)/C=C/c1ccc(C(F)(F)F)cc1` [I-54] was 0.438 µM; that for `COCCN(Cc1ncccc1Cl)C(=O)CNC(=O)/C=C/c1ccc(C(F)(F)F)cc1` [I-55] was 0.122 µM; that for `COCCN(Cc1ncc(C)s1)C(=O)CNC(=O)/C=C/c1ccc(C(F)(F)F)cc1` [I-56] was 0.067 µM.
Regarding `COCCN(Cc1nc(C)c(C)s1)C(=O)CNC(=O)/C=C/c1ccc(C(F)(F)F)cc1` [I-57], inhibition was half-maximal at 0.096 µM (IC50).
Under `COCCN(Cc1cc(C)n(C)n1)C(=O)CNC(=O)/C=C/c1ccc(C(F)(F)F)cc1` [I-58] stands 0.353 µM; under `COCCN(Cc1cccnn1)C(=O)CNC(=O)/C=C/c1ccc(C(F)(F)F)cc1` [I-59], 0.503 µM; under `CO[C@H]1CCN(C(=O)CNC(=O)/C=C/c2ccc(C(F)(F)F)cc2)C1` [I-60], 0.918 µM.
The value for `Cc1nc2c(s1)CN(C(=O)CNC(=O)/C=C/c1ccc(C(F)(F)F)cc1)C2` [I-61] was 0.081 µM; that for `O=C(/C=C/c1ccc(C(F)(F)F)cc1)NCC(=O)N1Cc2ncsc2C1` [I-62] was 0.077 µM; that for `O=C(/C=C/c1ccc(C(F)(F)F)cc1)NCC(=O)N1Cc2nc[nH]c2C1` [I-63] was 0.164 µM.
`O=C(/C=C/c1ccc(C(F)(F)F)cc1)NCC(=O)N1CCc2nccn2CC1` [I-64] displayed an IC50 of 0.195 µM.
Under `O=C(/C=C/c1ccc(C(F)(F)F)cc1)NCC(=O)N1Cc2cccnc2C1` [I-65] stands 0.07 µM; under `Cn1ncc2c1CN(C(=O)CNC(=O)/C=C/c1ccc(C(F)(F)F)cc1)C2` [I-66], 0.122 µM; under `Cn1cnc2c1CN(C(=O)CNC(=O)/C=C/c1ccc(C(F)(F)F)cc1)C2` [I-67], 0.141 µM.
Consider `O=C(/C=C/c1ccc(C(F)(F)F)cc1)NCC(=O)N1Cc2cncnc2C1` [I-68], for which it took 0.058 µM to reach half-maximal inhibition (IC50).
The value for `Cc1noc([C@@H]2CCN(C(=O)CNC(=O)/C=C/c3ccc(C(F)(F)F)cc3)C2)n1` [I-69] was 1.47 µM.
Under `Cn1cc2c(n1)CN(C(=O)CNC(=O)/C=C/c1ccc(C(F)(F)F)cc1)C2` [I-70] stands 0.136 µM; under `O=C(/C=C/c1ccc(C(F)(F)F)cc1)NCC(=O)N1CCC(c2cccnc2)C1` (centres unmarked) [I-71], 1.33 µM.
`O=C(/C=C/c1ccc(C(F)(F)F)cc1)NCC(=O)N1CCCn2ncnc2C1` [I-72]: 0.317 µM corresponded to half-maximal inhibition (IC50).
Under `O=C(/C=C/c1ccc(C(F)(F)F)cc1)NCC(=O)N1CCC(n2cccn2)CC1` [I-73] stands 0.228 µM; under `O=C(/C=C/c1ccc(C(F)(F)F)cc1)NCC(=O)N1CCCC(n2cccn2)C1` (centres unmarked) [I-74], 1.31 µM.
Under `O=C(/C=C/c1ccc(C(F)(F)F)cc1)NCC(=O)N1CCc2nc[nH]c2C1` [I-75] stands 0.099 µM.

As usually defined, the IC50 is the point on the concentration scale where inhibition reaches its midpoint. Lower therefore signals greater potency in that assay.
